In patent US6548085B1, “Insecticidal compositions and method of controlling insect pests using same” (Woodstream Corporation, priority 1998, dated 2003):

Experiments:
Type in all cases: in vivo
German cockroaches = experiment: Direct spray kill time test on German cockroaches; details: aqueous solution, sprayed 3 seconds, entry of 300 = no deaths during that time
Excerpt: (§1) To determine the effectiveness of an essential oil/sodium lauryl sulfate aerosol spray according to this invention as an insecticide when applied directly by a conventional pump spray on German cockroaches, American cockroaches and various ant species.
(§2) Insects shall be healthy and undeformed. Only adult male and female insects shall be used for testing purposes. The insects shall be contained in a 21.5×15.5×5.5 inch testing arena.
(§3) 1. Gather 10 adult insects, 5 males and 5 females.
(§4) 2. Place 1 insect into the testing arena.
(§5) 3. Select spray to be tested. Spray cockroaches for 3 seconds, ants for 2 seconds.
(§6) 4. Record kill time in seconds.
(§7) 5. Wipe away any spray residue before beginning another test.
(§8) 6. Repeat steps 2, 3, 4 and 5 until all test insects are used.
(§9) 7. Record date of testing, type of test material used, type of insect used, kill time in seconds, and whether or not test specimen meets standard.
(§10) Following this protocol, aqueous solutions of selected essential oils were prepared at different concentrations, both with and without the addition of sodium lauryl sulfate, and tested for their insecticidal activity (kill time in seconds) against German and American cockroaches and black or pavement ants. The results are tabulated below and illustrated graphically in the accompanying drawings.
(§11) ^3 The tests shown in the Tables utilized the active ingredients in an aqueous solution dispensed from a standard pump-type sprayer. Shorter kill times result when the insecticide is aerosolized, i.e., dispensed from a pressurized aerosol can using a propellant such as carbon dioxide.

American cockroaches = experiment: Direct spray kill time test on American cockroaches; details: aqueous solution, sprayed 3 seconds, entry of 300 = no deaths during that time
Excerpt: as §1, §2, §3, §4, §5, §6, §7, §8, §9, §10, §11

Black Ants = experiment: Direct spray kill time test on black ants; details: aqueous solution, sprayed 2 seconds, entry of 300 = no deaths during that time
Excerpt: as §1, §2, §3, §4, §5, §6, §7, §8, §9, §10, §11

Pavement Ants = experiment: Direct spray kill time test on pavement ants; details: aqueous solution, pump sprayer, sprayed 2 seconds, entry of 300 = no deaths during that time
Excerpt: as §1, §2, §3, §4, §5, §6, §7, §8, §9, §10, §11

[1] = cinnamon oil series, pump sprayer
[2] = citronella oil series, pump sprayer
[3] = cornmint oil series, standard pump-type sprayer
[4] = grapefruit oil series, pump sprayer
[5] = peppermint oil series, pump sprayer
[6] = tangerine oil series, pump sprayer
[7] = orange sweet oil series, pump sprayer

CCCCCCCCCCCCOS(=O)(=O)[O-].[Na+] [100% SLS, sodium lauryl sulfate]
Kill Time (German cockroaches; [1]): > 300 s | Kill Time (German cockroaches; [2]): > 300 s | Kill Time (German cockroaches; [3]): > 300^1 Seconds | Kill Time (German cockroaches; [4]): > 300 s | Kill Time (German cockroaches; lemon oil series, pump sprayer): > 300 s | Kill Time (German cockroaches; lime oil series, pump sprayer): > 300 s | Kill Time (German cockroaches; orange sweet oil series, pump sprayer, repetitions of 10% OSO mixture not performed): > 300 s | Kill Time (German cockroaches; [5]): > 300 s | Kill Time (German cockroaches; [6]): > 300 s | Kill Time (American cockroaches; [1]): > 300 s | Kill Time (American cockroaches; [2]): > 300 s | Kill Time (American cockroaches; [3]): > 300 s | Kill Time (American cockroaches; [4]): > 300 s | Kill Time (American cockroaches; lemon oil series, pump sprayer): > 300 s | Kill Time (American cockroaches; lime oil series, pump sprayer): > 300 s | Kill Time (American cockroaches; [7]): > 300 s | Kill Time (American cockroaches; [5]): > 300 s | Kill Time (American cockroaches; [6]): > 300 s | Kill Time (Black Ants; [1]): > 300 s | Kill Time (Black Ants; [3]): > 300 s | Kill Time (Black Ants; [7]): > 300 s | Kill Time (Pavement Ants; citronella oil series): > 300 s | Kill Time (Pavement Ants; grapefruit oil series): > 300 s | Kill Time (Pavement Ants; lemon oil series): > 300 s | Kill Time (Pavement Ants; lime oil series): > 300 s | Kill Time (Pavement Ants; peppermint oil series): > 300 s | Kill Time (Pavement Ants; tangerine oil series): > 300 s
